Test results published in publication PMC7760690, “Neuroprotective Metabolites from Vietnamese Marine Derived Fungi of Aspergillus and Penicillium Genera” (Marine Drugs, 2020).
Where two headings read alike, the source gives them in different places.

What was measured:
[1] = test system: PQ-treated Neuro-2a cells; experiment: ROS level in PQ-treated cells (H2DCFDA); assay type: cell-based, murine; conditions: compounds 1-5; compound 10 µM 1 h, PQ 500 µM 1 h
Description: (§1) The murine neuroblastoma cell line Neuro-2a was purchased from ATCC.
(§2) Neuro-2a cells were cultured in DMEM medium containing 10% fetal bovine serum (Biolot, St. Petersburg, Russia) and 1% penicillin/streptomycin (Biolot, St. Petersburg, Russia). Cells were incubated at 37 °C in a humidified atmosphere containing 5% (v/v) CO2 [71].
[…] Then, 6-OHDA/PQ/rotenone were added to cell suspension to resulting concentration of 50 µM, 500 µM and 10 µM respectively for incubation during 1 h. Cells incubated without neurotoxins and compounds and with neurotoxins alone were used as positive and negative controls, respectively. The 20 µL of 2,7-dichlorodihydrofluorescein diacetate solution (H2DCFDA, Molecular Probes, Eugene, OR, USA) was added to each well (10 µM, final concentration) and the plate was incubated for an additional 10 min at 37 °C. The intensity of dichlorofluorescein fluorescence was measured with PHERAstar FS plate reader (BMG Labtech, Ortenberg, Germany) at λex = 485 nm and λem = 518 nm. The data were processed by MARS Data Analysis v. 3.01R2 (BMG Labtech, Germany). The results were presented as the percent of positive control data.

[2] = test system: PQ-treated Neuro-2a cells; experiment: Paraquat-induced PD cell model, cell viability (MTT); assay type: cell-based, murine; conditions: compounds 1-5; 1 and/or 10 µM; paraquat 500 µM; 24 h
Description: as §1, §2
(§3) The neuroblastoma Neuro-2a line cells (1 × 10^4 cells/well) were treated with the test compounds at concentrations of 1 and/or 10 µM for 1 h, and then the neurotoxins were added to the neuroblastoma cell suspensions. Rotenone (Sigma-Aldrich, USA) was used at the concentration of 10 µM. Paraquat (Sigma-Aldrich, USA) was used at 500 µM. 6-Hydroxydopamine (Sigma-Aldrich, USA) was used at 50 µM. Cells incubated without neurotoxins and the test compounds and cells incubated with neurotoxins only were used as positive and negative controls, respectively. After 24 h of incubation, the cell viabilities were measured using the MTT method. The results are presented as the percent of positive control data.

[3] = test system: methicillin-resistant Staphylococcus aureus (MRSA), S. aureus, Enterococcus faecalis and Acinetobacter baumannii, E. coli and Klebsiella pneumonia; parameters: method as in PMID 30946944; conditions: cited from earlier work
[4] = cited from earlier work
[5] = test system: rotenone-treated Neuro-2a cells; experiment: Rotenone-induced PD cell model, cell viability (MTT); assay type: cell-based, murine; conditions: compounds 1-5; 1 and/or 10 µM; rotenone 10 µM; 24 h
Description: as §1, §2, §3

[6] = test system: murine lymphoma L5178Y cell line; parameters: method as in doi:10.1016/j.phytol.2015.06.003; conditions: cited from earlier work
[7] = test system: K562, BEL-7042, SGC-7901, A-549 and Hela cell lines; parameters: method as in PMID 30946944; conditions: cited from earlier work
[8] = DPPH radical scavenger assay; conditions: 30 min; for DPPH Radical Scavenging 100 µM % of MeOH: compound 100 µM, absorbance 520 nm
Description: The DPPH radical scavenging activities of the compounds were tested as described.
The compounds were dissolved in MeOH, and the solutions (120 µL) were dispensed into wells of a 96-well microplate. In all, 30 µL of the DPPH (Sigma-Aldrich, Steinheim, Germany) solution in MeOH (7.5 × 10^−3 M) was added to each well. The concentrations of the test compounds in the mixtures were 10 and 100 µM. The mixtures were shaken and left to stand for 30 min, and the absorbance of the resulting solutions was measured at 520 nm with a microplate reader MultiscanFC (ThermoScientific, Waltham, MA, USA). The concentration scavenging 50% of the DPPH radical (EC50) was calculated for each investigated compound.

[9] = MTT cytotoxicity assay; assay type: cell-based, murine; conditions: mouse, Neuro-2a neuroblastoma cells; Neuro-2a cells, MTT
Description: as §1, §2
(§4) The in vitro cytotoxicity of the individual substances was evaluated using an MTT (3-(4,5-dimethylthiazol-2-yl)-2,5-diphenyltetrazolium bromide) assay, which was performed according to the manufacturer’s instructions (Sigma-Aldrich, USA). Absorbance of the converted formazan was measured using a Multiskan FC plate photometer (Thermo Scientific, Waltham, MA, USA) at λ = 570 nm. The results were presented as percent of control data, and concentration of cell viability inhibition on 50% (IC50) was calculated.

[10] = test system: neuroblastoma Neuro-2a cells; experiment: MTT cytotoxicity assay; assay type: cell-based, murine; conditions: up to 100 µM
Description: as §1, §2, §4

[11] = test system: rotenone-treated Neuro-2a cells; experiment: ROS level in rotenone-treated cells (H2DCFDA); assay type: cell-based, murine; conditions: compounds 1-5; compound 10 µM 1 h, rotenone 10 µM 1 h
Description: as §1, §2
(§5) The cells (1 × 10^4 cells/well of a 96-well plate) were incubated with compound solutions (10 µM) during 1 h. Then, 6-OHDA/PQ/rotenone were added to cell suspension to resulting concentration of 50 µM, 500 µM and 10 µM respectively for incubation during 1 h. Cells incubated without neurotoxins and compounds and with neurotoxins alone were used as positive and negative controls, respectively. The 20 µL of 2,7-dichlorodihydrofluorescein diacetate solution (H2DCFDA, Molecular Probes, Eugene, OR, USA) was added to each well (10 µM, final concentration) and the plate was incubated for an additional 10 min at 37 °C. The intensity of dichlorofluorescein fluorescence was measured with PHERAstar FS plate reader (BMG Labtech, Ortenberg, Germany) at λex = 485 nm and λem = 518 nm. The data were processed by MARS Data Analysis v. 3.01R2 (BMG Labtech, Germany). The results were presented as the percent of positive control data.

[12] = test system: Neuro-2a cells treated with 6-OHDA; experiment: 6-OHDA-induced PD cell model, cell viability (MTT); assay type: cell-based, murine; conditions: compounds 1-5; 1 and/or 10 µM; 6-OHDA 50 µM; 24 h
Description: as §1, §2, §3

[13] = test system: several microbial pathogens; parameters: method as in PMID 17994702, doi:10.1016/j.phytol.2015.04.009; conditions: cited from earlier work
[14] = test system: a number of other cell lines; parameters: method as in PMID 17994702, PMID 30658264; conditions: cited from earlier work
[15] = test system: HeLa; parameters: method as in PMID 24871461; conditions: cited from earlier work
[16] = test system: 6-OHDA-treated Neuro-2a cells; experiment: ROS level in 6-OHDA-treated cells (H2DCFDA); assay type: cell-based, murine; conditions: compounds 1-5; compound 10 µM 1 h, 6-OHDA 50 µM 1 h
Description: as §1, §2, §5

SMILES	influence on ROS level in PQ-treated cells [1]	effect on viability of PQ-treated cells [2]	antibacterial activities [3]	EC50 ([4]; reported earlier, read-out: DPPH Radical Scavenging EC50)	DPPH radical scavenging activity ([4]; via donation of a hydrogen atom and adduct forming)	effect on viability of rotenone-treated cells [5]	cytotoxicity [6]	cytotoxic activities [7]	DPPH Radical Scavenging 100 µM % of MeOH [8]	IC50 [9]	cytotoxicity against Neuro-2a cells [10]	influence on ROS level in rotenone-treated cells [11]	effect on viability of Neuro-2a cells incubated with 6-OHDA [12]	antimicrobial activity [13]	cytotoxicity [14]	EC50 ([8]; MeOH, read-out: DPPH Radical Scavenging EC50)	cytotoxicity [15]	influence on ROS level in 6-OHDA-treated cells [16]
Cc1cc(O)c(C)c(=O)o1 [Compound 4, 4-hydroxy-3,6-dimethyl-2-pyrone]	had almost no effect	had no effect on viability	ineffective	500 µM	shows DPPH radical scavenging activity	did not affect	weak cytotoxicity	ineffective	87.2 ± 1.4 % of MeOH	> 100 µM	not cytotoxic	significantly reduced the ROS level	did not demonstrate any protective effects	–	–	–	–	–
C[C@H](O)CC1=C[C@H](O)[C@@H](C)OC1=O [Compound 5, Dihydroaspyrone]	significantly reduced the ROS level	statistically increased viability of PQ-treated cells only	–	–	–	did not affect	–	–	95.2 ± 1.0 % of MeOH	> 100 µM	not cytotoxic	significantly reduced the ROS level	did not demonstrate any protective effects	did not show	did not show cytotoxicity	> 100 µM	weak cytotoxicity	reduced ROS level
